US7250157B2, “Dermatological compositions and methods” (Applied Genetics Incorporated Dermatics, priority 1996, dated 2007)

How the values were obtained:
[1] = test system: American short-haired guinea pigs; experiment: Topical melanogenesis (pigmentation rating) in guinea pigs; format: in vivo, guinea pig; set-up: Pigmentation Rating / Pigmentation Rating Background Corrected: scale not given here; settings: for melanogenesis in guinea pigs (in words): same relative body position; for relative melanogenesis rating (mean ±SE), scale 0-4: 25 μl twice per day for 5 days, rated two weeks after
Experimental: Compounds were tested for melanogenic activity in vivo by application to American short-haired guinea pigs. Treatment sites were created by removal of fur using Nair® brand depilatory. In the Table, the numbers presented are the relative melanogenesis rating (mean ±SE), and are arranged according to the relative location on the animal, with the head being to the left and the tail being to the right. Propylene glycol (PG=13.6M), 2,3-butanediol (2,3-BD=10.95M), and 1,2-cis-cyclopentanediol (1,2-cs-CPD=10.7M) were applied as full strength solutions. 3,3-dimethyl-1,2-butanediol (3,3-M-1,2-BD) was applied as a 4M solution dissolved in ethanol. Two weeks following cessation of treatments, the degree of pigmentation was subjectively rated according to the following scale:
In order to minimize the effects of dimunition of response from head to tails of animals, all future experiments were done using only treatment spots located towards the tails of animals (c and d in Table 7). Deemed as additionally beneficial, in this area of the animal differences of responsiveness to strong and weak inducers of pigmentation, as deduced from cell culture, were greatest. […] Pigmentation ratings were corrected for background (control treatment spots), normalized to 1M to account for the different amounts of each agent applied, and then normalized to results for 1,2-PG (Table 8). […] It is anticipated that further improvements in formulation will additionally improve responsiveness to 5-NBene-2,2-DM and other compounds in this invention.
In FIG. 5, a, b, c and d indicate treatment spots that transverse the anterior-posterior axis along the backs of guinea pigs.

[2] = test system: Cloudman S91 mouse melanoma cell line; experiment: Melanin content of S91 cells after treatment with test compound; format: cell-based; settings: for induction of melanogenesis (in words): concentrations tested in Example 2
Experimental: The Cloudman S91 mouse melanoma cell line was obtained from American Type Culture Collection (ATCC). […] For testing propylene glycol and analogues for induction of melanogenesis, S91 cells were plated at 10^5 cells/35 mm dish in 10% calf serum. […] Cells were cultured for 6 days at 37° C. in 5% CO2 in a humidified incubator. Following this treatment period, cells were examined microscopically and the portion of dedifferentiated and differentiated cells was estimated.
Following this microscopic examination, cells were detached from dishes by trypsin. The time required for detachment by trypsin was recorded as an additional indicator of the phenotypic effects of test compounds. For each treatment, a subsample of cells was counted to determine the effects of treatment compounds on cellular proliferation. The remainder of cells were used for determination of melanin content. […] Absorbance of standards and samples was measured at 475 nm. Melanin was expressed as pg melanin/cell.

[3] = test system: Cloudman S91 mouse melanoma cell line; experiment: Microscopic morphology (differentiation) of S91 cells; format: cell-based
Experimental: (§1) The Cloudman S91 mouse melanoma cell line was obtained from American Type Culture Collection (ATCC). Cells were cultured in Dulbecco's Modified Eagles Medium (DMEM) containing 10% calf serum, 2 mM L-glutamine, 10 U Penicillin/ml and 10 ug Streptomycin/ml according to a previously published protocol (Eller, et al., Proc. Natl. Acad. Sci. 93:1087-92. 1996). For testing propylene glycol and analogues for induction of melanogenesis, S91 cells were plated at 10^5 cells/35 mm dish in 10% calf serum. One day after plating, media was removed and replaced with media containing 2% calf serum and test compounds (Eller, et al., 1996). Cells were cultured for 6 days at 37° C. in 5% CO2 in a humidified incubator. Following this treatment period, cells were examined microscopically and the portion of dedifferentiated and differentiated cells was estimated. Previous studies have shown that dedifferentiated S91 cells have a rounded, spindly appearance while differentiated S91 cells have a flattened, cuboidal, multipolar and dendritic appearance (Orlow, et al., Exp. Cell Res. 191:209-218, 1990).

[4] = test system: Cloudman S91 mouse melanoma cell line; experiment: Trypsinization detachment time of S91 cells; format: cell-based
Experimental: (§2) Following this microscopic examination, cells were detached from dishes by trypsin. The time required for detachment by trypsin was recorded as an additional indicator of the phenotypic effects of test compounds. For each treatment, a subsample of cells was counted to determine the effects of treatment compounds on cellular proliferation. The remainder of cells were used for determination of melanin content. Melanin was extracted from cells by vortexing for 15 min in 1N NaOH. Standards were prepared by dissolving melanin (Sigma) in 1 N NaOH (Eller, et al., 1996). Absorbance of standards and samples was measured at 475 nm. Melanin was expressed as pg melanin/cell.

[5] = test system: Cloudman S91 mouse melanoma cell line; experiment: Cell count (proliferation, toxicity) of treated S91 cells; format: cell-based
Experimental: as §1, §2

[6] = No Penetration Enhancer, concentrations as E85

| SMILES | Morphology Flattened Cuboidal ([3]; 50 mM) | Morphology Rounded Spindly ([3]; 50 mM) | Morphology Flattened Cuboidal ([3]; 150 mM) | Trypsinization Detachment Time ([4]; 50 mM) | Trypsinization Detachment Time ([4]; 150 mM) | Cells (×10^6) ([5]; 50 mM) | Cells (×10^6) ([5]; 150 mM) | reduction of cell numbers ([5]; 150 mM) | pg Melanin/Cell ([2]; 50 mM) | ug Melanin ([2]; 50 mM) | pg Melanin/Cell ([2]; 150 mM) | ug Melanin ([2]; 150 mM) | Morphology Rounded Spindly ([3]; 150 mM) | further results |
| --- | --- | --- | --- | --- | --- | --- | --- | --- | --- | --- | --- | --- | --- | --- |
| CC(CO)CO [2-M-1,3-PG, 2-Methyl-1,3-Propanediol] |  |  |  |  |  |  |  |  |  |  |  |  |  | Pigmentation Rating Normalized to 1,2-PG [1, 6]: 2.9 ± 0.4; Pigmentation Rating Normalized to 1M [1, 6]: 0.044 ± 0.006; Pigmentation Rating Background Corrected ([1]; No Penetration Enhancer, corrected for Nair control, concentrations as E85): 0.50 ± 0.07; Pigmentation Rating ([1]; No Penetration Enhancer, sites c and d, 13.61M 1,2-PG, 11.0M 2,3-M-2,3-BD, 11.3M 2-M-1,3-PG, 8.7M 1,2-cs-CPD, 4.0M 3,3-M-1,2-BD): 0.58 ± 0.08; melanogenesis in guinea pigs (in words) [1]: only slightly better melanogenic agents than propylene glycol; relative melanogenesis rating (mean ±SE), scale 0-4 ([1]; site a (head), PG 13.6M, 2,3-BD 10.95M, 1,2-cs-CPD 10.7M full strength, 3,3-M-1,2-BD 4M in ethanol): 1.25 ± 0.52; relative melanogenesis rating (mean ±SE), scale 0-4 ([1]; site c, full strength, 3,3-M-1,2-BD 4M in ethanol): 0.58 ± 0.08^2; Concentration Required for ≧2-fold Melanin Induction in S91 Cells [2]: 50 mM |
| O=C1CCCN1 [2-pyrrolidone] |  |  |  |  |  |  |  |  |  |  |  |  |  | morphological differentiation of S91 cells [3]: profound morphological differentiation; melanogenesis in S91 cells (≧2-fold increase = significant) ([2]; range of concentrations up to a toxic dose): did not induce significant (≧2-fold increase) melanogenesis |
| CC(O)CCO (stereo not shown) [BD-1,3, 1,3-butanediol] | 75% | 25% | 100% | 3 min | 6 min | 0.064 ×10^6 | 0.048 ×10^6 | one-third | 15.5 pg Melanin/Cell | 0.99 µg | 18.1 pg Melanin/Cell | 0.87 µg |  |  |
| CC(O)C(C)O (stereo not shown) [BD-2,3, 2,3-butanediol] | 75% | 25% | 100% | 3 min | 9 min | 0.072 ×10^6 | 0.040 ×10^6 | one-third | 15.6 pg Melanin/Cell | 1.12 µg | 23.8 pg Melanin/Cell | 0.95 µg |  | melanogenesis in guinea pigs (in words) [1]: only slightly better melanogenic agents than propylene glycol; relative melanogenesis rating (mean ±SE), scale 0-4 ([1]; site b, full strength solutions): 1.33 ± 0.17^2; relative melanogenesis rating (mean ±SE), scale 0-4 ([1]; site d (tail), full strength solutions): 0.25 ± 0.14; Concentration Required for ≧2-fold Melanin Induction in S91 Cells [2]: 100 mM |
| CCO [ETOH, Ethanol] |  |  |  |  |  |  |  |  |  |  |  |  |  | Morphology Rounded Spindly ([3]; 1.0% (170 mM)): 100%; Morphology Rounded Spindly ([3]; 2.0% (340 mM)): 100%; Morphology Rounded Spindly ([3]; 5.0% (850 mM)): 100%; Trypsinization Detachment Time ([4]; 1.0% (170 mM)): 3 min; Trypsinization Detachment Time ([4]; 2.0% (340 mM)): 3 min; Trypsinization Detachment Time ([4]; 5.0% (850 mM)): 3 min; effect on cells ([5]; 340 mM): no effect on cells; toxicity (low cell survival) ([5]; 850 mM): toxic; Cells (×10^6) ([5]; 1.0% (170 mM)): 0.104 ×10^6; Cells (×10^6) ([5]; 2.0% (340 mM)): 0.100 ×10^6; Cells (×10^6) ([5]; 5.0% (850 mM)): 0.032 ×10^6; pg Melanin/Cell ([2]; 1.0% (170 mM)): 11.0 pg Melanin/Cell; ug Melanin ([2]; 1.0% (170 mM)): 1.14 µg; pg Melanin/Cell ([2]; 2.0% (340 mM)): 12.5 pg Melanin/Cell; ug Melanin ([2]; 2.0% (340 mM)): 1.25 µg; pg Melanin/Cell ([2]; 5.0% (850 mM)): 5.3 pg Melanin/Cell; ug Melanin ([2]; 5.0% (850 mM)): 0.17 µg; induction of melanogenesis (in words) [2]: did not induce melanogenesis |
| OCC(O)CO [G, Glycerol] |  | 100% | 25% | 3 min | 3 min | 0.092 ×10^6 | 0.084 ×10^6 |  | 11.2 pg Melanin/Cell | 1.03 µg | 13.0 pg Melanin/Cell | 1.09 µg | 75% | induction of melanogenesis (in words) [2]: only a slight effect on melanogenesis and differentiation |
| OCCCO [PG-1,3, 1,3-propanediol] | 25% | 75% | 50% | 3 min | 6 min | 0.064 ×10^6 | 0.044 ×10^6 | one-third | 20.4 pg Melanin/Cell | 1.31 µg | 23.6 pg Melanin/Cell | 1.04 µg | 50% |  |
| C[C@H](O)CO [PG-S-1,2, (S)-(+)-1,2-Propanediol] | 25% | 75% | 50% | 3 min | 6 min | 0.088 ×10^6 | 0.080 ×10^6 |  | 17.1 pg Melanin/Cell | 1.51 µg | 25.5 pg Melanin/Cell | 2.04 µg | 50% | effect on cell proliferation ([5]; levels used in this experiment (50 and 150 mM)): no reduction of cell proliferation |
